Experimental data as given in patent EP4523686A1, “A SIGMA-1 RECEPTOR POSITIVE MODULATOR FOR ITS USE IN THE PREVENTION AND THE TREATMENT OF A PATHOLOGY” (priority 2023, dated 2025).
Several values for one entry are separate records, joined by “and”; a condition that tells them apart may be missing. Identical values can stand only once.

Columns and labels:
[1] = test system: wfs1ab^KO zebrafish larvae; assay: Visual motor response in zebrafish larvae (hyperlocomotor response); assay type: in vivo
Protocol: The visual motor response assay quantifies the locomotor activity of the zebrafish larvae to light intensity changes. The protocol was previously described (Crouzier et al., 2021a, 2021b, 2022). In brief, 5 dpf larvae were transfered in a 96-well plate (#7701-1651, Whatman) with 300 µl of fish water and placed in a Zebrabox® (ViewPoint, Lissieu, France). The locomotor behavior was monitored using an automated videotracking device equipped with an infra-red (IR) camera under IR light illumination (Zebralab®, Viewpoint). The light protocol was as follow: 30 min of acclimatization in the dark (0% light intensity), then 2 cycles of 10-min duration light ON and 10-min duration light OFF periods. The brightness changes were immediate (<< 1 s). The activity was measured in mm/s. For each larva, the mobility were calculated as mean (OFF-ON) values to account for inter- and intra-group variability in locomotor response.
A phenotypic test described by Crouzier et al. (2022) was performed. […] Compounds were added in the fish water of larvae at 4 dpf for 24 h, and screening parameters included: (1) the lack of toxicity (including grossly observable morphological alterations) after 24 h exposure; (2) the locomotor increase in wfs1ab^KO larvae, expressed as % of V-treated wfs1ab^KO response; (3) the eventual alteration of locomotion in wfs1ab^WT larvae, expressed as % of V-treated wfs1ab^WT response; and (4) the Protection index (PI) calculated as detailed in the Methods section.

Kv channel = assay: CEREP in vitro binding assay (pharmacological profiling)
[2] = test system: panel of 47 receptors and ionophores; assay: CEREP screen on a panel of 47 receptors and binding sites; settings: all targets except CB2 receptors, Kv channels, 5-HT3 and 5-HT1B receptors
Protocol: Table 1 represents pharmacological profiling of convolamine which was tested at […] and 1 µM in in vitro binding assays designed with appropriate reference compounds in duplicates at CEREP facility.

Male Swiss mice = assay: Open field activity test (anxiolytic effect) and observation of animals; assay type: in vivo
Protocol: Drug administration: Route: intraperitoneal (IP), Method: by injection. The drug was administered under a volume calculated according to the individual body weight of each mouse (5 ml/kg), Frequency: once before the behavioral procedure, Treatment length: once, Timing: 30 minutes before behavioral procedure.
Health of animals was checked daily: general aspect of animals, activity, acute or delayed mortality. Weight was monitored the day of experiment.
The day of the test, animals were tested for general locomotor activity in the open field (OF) activity test for 10 min. The open field is made of opaque white plexiglass. The arena is composed of a large square box (50cm × 50cm × 50cm). Animal movements were followed by an overhead camera placed above the apparatus. Each mouse was placed in the center of the arena and allowed to move freely through the arena during its session. The locomotor activity was assessed by counting the total distance traveled measured in centimeters (cm) for the whole session time. The time spent in center area, and the number of defecations were also assessed.

[3] = test system: Dizocilpine-induced learning impairments in mice; assay: Spontaneous alternation in the Y-maze, Dizocilpine-induced learning impairments; assay type: in vivo
Protocol: The Y-maze is made of grey polyvinylchloride. Each arm is 40 cm long, 13 cm high, 3 cm wide at the bottom, 10 cm wide at the top, and converging at an equal angle. Each mouse was placed at the end of one arm and allowed to move freely through the maze during an 8 min session. The series of arm entries, including possible returns into the same arm, were checked visually. An alternation is defined as entries into all three arms on consecutive occasions. The number of maximum alternations is therefore the total number of arm entries minus two and the percentage of alternation was calculated as (actual alternations / maximum alternations) × 100 (Maurice et al., 1996; Meunier et al., 2006, 2013). Exclusion criteria are locomotion < 10 or percentage of alternation < 25% or > 90%. Animals showing these readouts are excluded from the calculations. Attrition is routinely < 5% in this test.
Due to the chaperone nature of SIG-1R, a SIG-1R positive modulator behaves as an agonist in vivo, particularly on learning and memory abilities in mice (Maurice et al., 2019; Vavers et al., 2019). Convolamine was tested on Dizocilpine-induced learning impairments, a well-characterized SIG-1R-mediated response in mice (Maurice et al., 1994, 2001). The NMDA receptor noncompetitive antagonist Dizocilpine (0.15 mg/kg IP) prevented spontaneous alternation behavior (Fig. 4A) and increased mobility (Fig. 4B) in the Y-maze. […] Co-treatment with the SIG-1R antagonist NE-100 at 1 mg/kg IP, blocked the attenuating effect of Convolamine (Fig. 4C), thus confirming the SIG-1R-mediated effect.

SIG-1R/BiP = molecular target: T1, SIG-1R/BiP (Homo sapiens, UniProt Q99720); assay: SIG-1R/BiP dissociation assay in GFP-SIG-1R-overexpressing CHO cells; assay type: cell-based; settings: for dissociation of SIG-1R from BiP (in words) / dissociation of the SIG-1R/BiP complex (in words): compound alone; for dissociation of the SIG-1R/BiP complex (in words): no concentration stated
T1 construct: host or cells: CHO cells overexpressing GFP-SIG-1R
T1 sequence (Q99720 whole entry): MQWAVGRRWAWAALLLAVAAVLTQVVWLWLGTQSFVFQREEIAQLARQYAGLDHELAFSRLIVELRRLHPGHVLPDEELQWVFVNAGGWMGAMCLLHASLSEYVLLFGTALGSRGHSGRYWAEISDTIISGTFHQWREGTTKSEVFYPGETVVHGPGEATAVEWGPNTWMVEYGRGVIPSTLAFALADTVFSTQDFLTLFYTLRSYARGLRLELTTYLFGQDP
Protocol: CHO cells which overexpress GFP tagged-SIG-1R (gift from Tsung-Ping Su, NIDA/NIH, Baltimore, MD, USA) were maintained in DMEM/Glutamax culture medium supplemented with 10% heat inactivated FBS. GFP-SIG-1Roe CHO cells were plated in 6-well plates and treated with test compounds dissolved in culture medium for 30 min at 37°C. The reaction was terminated by removing the culture medium containing the test drug and replacing it with 1 ml of PBS. GFP-SIG-1R-oe CHO cells were harvested and suspended in PBS (pH 7.4) followed by cross-linking with 50 µg/ml of dithiobis succinimidyl propionate (ThermoFisher, France). The reaction was stopped by adding Tris/HCl 50 mM (pH 8.8). After a 15 min incubation on ice, cells were lysed with 50 mM Tris (pH 7.4), 150 mM NaCl, 1% Triton X/100, 0.3% sodium deoxycholate, 0.1% SDS buffer containing a protease inhibitor cocktail (Sigma-Aldrich, France). After centrifugation at 16,000 g for 1 min, the supernatant was incubated with Chromotek GFP-trap agarose (Proteintech, United Kingdom) overnight at 4°C.

## COc1ccc(C(=O)OC2CC3CCC(C2)N3C)cc1OC (stereo not drawn) [Convolamine, (8-methyl-8-azabicyclo[3.2.1]octan-3-yl) 3,4-dimethoxybenzoate]
[1]; 0.3-3 µM concentration-range
  hyperlocomotor response of wfs1ab^KO zebrafish larvae (in words): dose-dependently abolished
[1]; 5 dpf larvae, 24 h exposure, 3 µM
  Protection index (PI): 1.0
[1]; at 3 µM in fish water
  hyperlocomotor response of wfs1ab^KO zebrafish (in words): completely prevented
[1]; co-treatment with NE-100 at 3 µM
  effect of convolamine on hyperlocomotor response under co-treatment with NE-100 (in words): attenuated
Kv channel; 0.1 µM, duplicates
  inhibition at 0.1 µM: 30.4%
Kv channel; 1 µM, duplicates
  inhibition at 1 µM: 22.7%
Kv channel; at micromolar concentrations, range given jointly for CB2, Kv, 5-HT3
  inhibitions of the selective radiotracer: 20-60%
[2]
  activity on the panel of 47 receptors and ionophores (in words): inactive
Male Swiss mice; IP 30 minutes before the test
  percentage of locomotion in center of the arena (in words): increase
Male Swiss mice; IP 30 minutes before the test, compared to the vehicle-treated group
  time spent in the center of the arena (in words): significant and bell-shaped increase
Male Swiss mice; single IP injection, daily health check
  mortality and adverse effect (in words): No mortality nor adverse effect
[3]; 0.1-1 mg/kg IP range, 10 min before Dizocilpine […] IP
  Dizocilpine-induced alternation deficit (in words): attenuated, dose-dependently and significantly but in a bell-shaped manner
[3]; Convolamine 1 mg/Kg IP with NE-100 at 1 mg/kg IP
  attenuating effect of Convolamine on alternation deficit under NE-100 co-treatment (in words): blocked
SIG-1R/BiP; IC50 of SIG-1R positive modulatory action (displacement of PRE-084 efficacy to dissociate SIG-1R from BiP), convolamine 0.1-10 µM with PRE-084
  IC50: 290 nM and 289 nM
SIG-1R/BiP; at concentrations < 10 µM
  dissociation of SIG-1R from BiP (in words): failed to dissociate SIG-1R from BiP
SIG-1R/BiP; at concentrations up to 30 µM
  dissociation of SIG-1R from BiP (in words): failed to dissociate SIG-1R from BiP
SIG-1R/BiP
  dissociation of the SIG-1R/BiP complex (in words): did not induce the dissociation
SIG-1R/BiP; listed as convolamine
  dissociation of the SIG-1R/BiP complex (in words): does not allow the dissociation
